Data taken from article PMC9505538, “P-Glycoprotein (MDR1/ABCB1) Restricts Brain Accumulation of the Novel EGFR Inhibitor EAI045 and Oral Elacridar Coadministration Enhances Its Brain Accumulation and Oral Exposure” (Pharmaceuticals, 2022).
Where “and” joins values, the source holds several entries; their conditions need not be identical. Identical values can stand only once.

Assay: 30-min pharmacokinetic experiment with oral elacridar coadministration in WT mice
Description: Considering the potential therapeutic benefit of increasing EAI045 brain penetration, and possibly also plasma exposure, we investigated to what extent elacridar, a dual ABCB1 and ABCG2 inhibitor, could increase the brain penetration and oral exposure of EAI045. We performed a 30-min pharmacokinetic experiment with an EAI045 dose of 20 mg/kg, and elacridar at 50 mg/kg. As elacridar plasma concentration peaks around 3–4 h after oral administration, elacridar was administered orally 3 h prior to oral EAI045 administration to male WT mice. Plasma and tissue EAI045 levels were determined 30 min later.
Mice (Mus musculus) were bred in the Netherlands Cancer Institute and housed and handled according to institutional guidelines complying with Dutch and EU legislation. Animals used were WT, Abcb1a/1b^-/- [39], Abcg2^-/- [40], Abcb1a/1b;Abcg2^-/- [41], Cyp3a^-/- [42], and Oatp1a/1b^-/- [43] mice of a >99% FVB/N strain background. Homozygous CYP3A4 humanized transgenic mice (Cyp3aXAV) were generated by cross-breeding of transgenic mice with stable human CYP3A4 expression in the liver or intestine, respectively, in a Cyp3a^-/- background. Proper functionality of the knockout and transgenic strains was monitored by regular testing with a variety of drug substrates. All the mice used were between 10 and 15 weeks of age. Animals were kept in a temperature-controlled environment with a 12 h light/12 h dark cycle and received a standard diet (Transbreed, SDS Diets, Technilab-BMI, The Netherlands) and acidified water ad libitum. Depending on the type of experiment, 5 or 6 mice were tested in each experimental group. All experimental animal protocols, including power calculations, were ethically assessed and designed under the nationally approved DEC/CCD project AVD301002016595 (approval date, 10 August 2016) and evaluated and approved by the institutional animal care and use committee (IACUC) of the Netherlands Cancer Institute.
EAI045 was dissolved in dimethyl sulfoxide (DMSO) at a concentration of […], and then diluted with a mixture of polysorbate 80/ethanol (1:1, v/v), and further diluted with 5% (w/v) glucose in water to yield a concentration of 2 mg/mL. Final concentrations for DMSO, polysorbate 80, ethanol, and glucose in the dosing solution were 5%, 2.5%, 2.5%, and 4.5% (v/v/v/w), respectively. Elacridar hydrochloride was dissolved in DMSO at a concentration of 53 mg/mL, then diluted with a mixture of polysorbate 80, ethanol, and water [20:13:67, (v/v/v)] to yield a concentration of 5 mg/mL elacridar. The final oral dose of elacridar was 50 mg/kg body weight. All dosing solutions were prepared freshly on the day of experiment.
To minimize variation in absorption, mice were fasted for about 3 h before EAI045 was administered by gavage into the stomach (n = 5–6), using a blunt-ended needle. EAI045 was administered orally at dose of 20 mg/kg. Elacridar was administered orally at a dose of 50 mg/kg, 3 h prior to oral EAI045 administration. For the 24- or 4-h experiments, tail vein blood samplings were performed at 5 min, 30 min, 1, 2, 4, and 8 h, or 5 min, 15 min, 30 min, 1, and 2 h time points after oral administration of EAI045, respectively, using microvettes containing heparin. For the 30 min experiments, blood samplings were performed at 5, 10, and 20 min from the tail vein. At the last time point (24 h, 4 h, or 30 min), mice were anesthetized with isoflurane and blood was collected by cardiac puncture. Then, mice were sacrificed by cervical dislocation and brain, liver, spleen, kidneys, lung, small intestine with content (SIWC), and testis were rapidly removed and weighed. Tissues were homogenized on ice in appropriate volumes of 2% (w/v) BSA. Blood samples were centrifuged at 9000× g for 6 min at 4 °C immediately after collection.

[1] = WT + elacridar compared to Abcb1a/1b;Abcg2-/- mice, 30 min
[2] = male WT mice + elacridar, EAI045 20 mg/kg oral, 30 min
[3] = male WT mice + elacridar, EAI045 20 mg/kg oral, plasma

Question: Which results are given for O=C(Nc1nccs1)C(c1cc(F)ccc1O)N1Cc2ccccc2C1=O (stereo not drawn) [EAI045]?
Answer: plasma AUC0–30min, fold increase (WT + elacridar compared to Abcb1a/1b;Abcg2-/- mice): 2.4 fold; SIWC%, fold decrease [1]: 3.5 fold; SIWC%-to-plasma ratio, fold decrease [1]: 8.6 fold; Fold change Cbrain (WT + elacridar vs WT, 30 min): 17 fold and 17.0 fold; Fold change Ctestis (WT + elacridar vs WT, 30 min): 8.7 fold; Fold change Kp.SIWC% (WT + elacridar vs WT, 30 min): 0.032 fold; Fold change Kp.brain (WT + elacridar vs WT, 30 min): 5.4 fold; Fold change Kp.testis (WT + elacridar vs WT, 30 min): 2.6 fold; Fold change SIWC% (WT + elacridar vs WT, 30 min): 0.13 fold; Kp.SIWC% (SIWC%-to-plasma ratio), fold decrease (WT + elacridar vs WT, 30 min): 30.8 fold; SIWC%, fold decrease (WT + elacridar vs WT, 30 min): 7.5 fold; Fold change AUC (WT + elacridar vs WT, plasma AUC0–30min, EAI045 20 mg/kg oral, 20 mg/kg): 4 fold and 4.0 fold; Plasma AUC0–30min (male WT mice + elacridar 50 mg/kg oral 3 h before, EAI045 20 mg/kg oral): 549 ± 82 ***^. +++ h*ng/mL; Cbrain (brain concentration) [2]: 395.9 ± 123.1 ***^. +++ ng/g; Ctestis (testis concentration) [2]: 198.7 ± 58.9 ***^. +++ ng/g; Kp.SIWC% (SIWC%-to-plasma ratio) [2]: 5.13 ± 2.63; Kp.brain (brain-to-plasma ratio) [2]: 0.560 ± 0.200; Kp.testis (testis-to-plasma ratio) [2]: 0.280 ± 0.096; SIWC% (drug percentage of dose in small intestine with content) [2]: 4.00 ± 2.57 %; Cmax [3]: 1512 ± 260 ng/mL; tmax [3]: 10 to 30 min
